From ChEMBL document CHEMBL4680214, “Fluorinated derivatives of 2-phenyl-3-hydroxy-4(1H)-quinolinone as tubulin polymerization inhibitors” (Eur J Med Chem, 2020)

Columns and labels:
CCRF-CEM [1] = assay: Cytotoxicity against human CCRF-CEM cells incubated for 72 hrs by MTS assay; assay type: functional, cell-based
CCRF-CEM [2] = assay: Cytotoxicity against human daunorubicine-resistant CCRF-CEM cells incubated for 72 hrs by MTS assay; assay type: functional, cell-based
K562 [3] = assay: Cytotoxicity against human K562 cells incubated for 72 hrs by MTS assay; assay type: functional, cell-based; conditions: K562, 72 h
K562 [4] = assay: Cytotoxicity against human paclitaxel-resistant K562 cells incubated for 72 hrs by MTS assay; assay type: functional, cell-based; conditions: K562, 72 h
HCT-116 [5] = assay: Cytotoxicity against human HCT-116 cells incubated for 72 hrs by MTS assay; assay type: functional, cell-based; conditions: HCT-116, 72 h
HCT-116 [6] = assay: Cytotoxicity against p53-deficient human HCT-116 cells incubated for 72 hrs by MTS assay; assay type: functional, cell-based; conditions: HCT-116, 72 h
A549 = assay: Cytotoxicity against human A549 cells incubated for 72 hrs by MTS assay; assay type: functional, cell-based; conditions: A549, 72 h
BJ = assay: Cytotoxicity against human BJ cells incubated for 72 hrs by MTS assay; assay type: cell-based
CCRF-CEM [7] = assay: Cell cycle arrest in human CCRF-CEM cells assessed as accumulation at sub-G1 phase at IC50 measured after 24 hrs by propidium iodide staining based flow cytometry (reference value: 2%); assay type: functional
CCRF-CEM [8] = assay: Cell cycle arrest in human CCRF-CEM cells assessed as accumulation at sub-G1 phase at 5 times IC50 measured after 24 hrs by propidium iodide staining based flow cytometry (reference value: 2%); assay type: functional
CCRF-CEM [9] = assay: Cell cycle arrest in human CCRF-CEM cells assessed as accumulation at G0/G1 phase at IC50 measured after 24 hrs by propidium iodide staining based flow cytometry (reference value: 35.2%); assay type: functional
CCRF-CEM [10] = assay: Cell cycle arrest in human CCRF-CEM cells assessed as accumulation at G0/G1 phase at 5 times IC50 measured after 24 hrs by propidium iodide staining based flow cytometry (reference value: 35.2%); assay type: functional
CCRF-CEM [11] = assay: Cell cycle arrest in human CCRF-CEM cells assessed as accumulation at S phase at IC50 measured after 24 hrs by propidium iodide staining based flow cytometry (reference value: 42.2%); assay type: functional
CCRF-CEM [12] = assay: Cell cycle arrest in human CCRF-CEM cells assessed as accumulation at S phase at 5 times IC50 measured after 24 hrs by propidium iodide staining based flow cytometry (reference value: 42.2%); assay type: functional
CCRF-CEM [13] = assay: Cell cycle arrest in human CCRF-CEM cells assessed as accumulation at G2/M phase at IC50 measured after 24 hrs by propidium iodide staining based flow cytometry (reference value: 22.6%); assay type: functional
CCRF-CEM [14] = assay: Cell cycle arrest in human CCRF-CEM cells assessed as accumulation at G2/M phase at 5 times IC50 measured after 24 hrs by propidium iodide staining based flow cytometry (reference value: 22.6%); assay type: functional
CCRF-CEM [15] = assay: Cell cycle arrest in human CCRF-CEM cells assessed as phosphorylation of histone H3 at Ser10 at IC50 measured after 24 hrs by propidium iodide staining based flow cytometry (reference value: 2.0%); assay type: functional
CCRF-CEM [16] = assay: Cell cycle arrest in human CCRF-CEM cells assessed as phosphorylation of histone H3 at Ser10 at 5 times IC50 measured after 24 hrs by propidium iodide staining based flow cytometry (reference value: 2.0%); assay type: functional
CCRF-CEM [17] = assay: Cell cycle arrest in human CCRF-CEM cells assessed as BrdU incorporation at IC50 measured after 24 hrs by propidium iodide/immunostaining based flow cytometry (reference value: 60.0%); assay type: functional
CCRF-CEM [18] = assay: Cell cycle arrest in human CCRF-CEM cells assessed as BrdU incorporation at 5 times IC50 measured after 24 hrs by propidium iodide/immunostaining based flow cytometry (reference value: 60.0%); assay type: functional
CCRF-CEM [19] = assay: Cell cycle arrest in human CCRF-CEM cells assessed as BrU incorporation at IC50 measured after 24 hrs by propidium iodide/immunostaining based flow cytometry (reference value: 52.2%); assay type: functional
CCRF-CEM [20] = assay: Cell cycle arrest in human CCRF-CEM cells assessed as BrU incorporation at 5 times IC50 measured after 24 hrs by propidium iodide/immunostaining based flow cytometry (reference value: 52.2%); assay type: functional
Sus scrofa = species: Sus scrofa; assay: Inhibition of porcine brain tubulin polymerization assessed as Vmax of polymerization at 10 umol/L measured at 60 secs interval for 30 mins by turbidometric method; conditions: dose 10.0 µmol/L

Compound | IC50 (CCRF-CEM [1]) [µM] | IC50 (CCRF-CEM [2]) [µM] | IC50 (K562 [3]) [µM] | IC50 (K562 [4]) [µM] | IC50 (HCT-116 [5]) [µM] | IC50 (HCT-116 [6]) [µM] | IC50 (A549) [µM] | IC50 (BJ) [µM] | further results
O=c1c(O)c(-c2ccccc2)[nH]c2cc(F)c(N3CCOCC3)cc12 | > 50 | 11.7 | 19.3 | 12.8 | 5.2 | > 50 | 13.6 | > 50 | 
O=c1c(O)c(-c2ccccc2)[nH]c2cc(F)c(N3CCN(CCOCCO)CC3)cc12 | 19.8 | > 50 | 47.7 | > 50 | > 50 | 29.4 | > 50 | > 50 | 
O=c1c(O)c(-c2ccccc2)[nH]c2c(F)c(F)c(F)c(F)c12 | 19.5 | > 50 | > 50 | 16.8 | > 50 | > 50 | > 50 | > 50 | 
O=c1c(O)c(-c2cccc(F)c2)[nH]c2ccccc12 | 7.3 | 50 | 12.9 | 7.5 | 27.1 | 50 | 13.1 | > 50 | Activity (CCRF-CEM [7]): 5.4%; Activity (CCRF-CEM [8]): 15.9%; Activity (CCRF-CEM [9]): 34.9%; Activity (CCRF-CEM [10]): 52.6%; Activity (CCRF-CEM [11]): 32.6%; Activity (CCRF-CEM [12]): 19.9%; Activity (CCRF-CEM [13]): 32.6%; Activity (CCRF-CEM [14]): 27.5%; Activity (CCRF-CEM [15]): 1%; Activity (CCRF-CEM [16]): 0.2%; Activity (CCRF-CEM [17]): 26.7%; Activity (CCRF-CEM [18]): 22.4%; Activity (CCRF-CEM [19]): 33.7%; Activity (CCRF-CEM [20]): 3.8%
CC(=O)O[C@H]1C(=O)[C@@]2(C)[C@H]([C@H](OC(=O)c3ccccc3)[C@]3(O)C[C@H](OC(=O)[C@H](O)[C@@H](NC(=O)c4ccccc4)c4ccccc4)C(C)=C1C3(C)C)[C@]1(OC(C)=O)CO[C@@H]1C[C@@H]2O |  |  |  |  |  |  |  |  | Vmax (milli optical density/minute) (Sus scrofa): 63.3
O=c1c(O)c(-c2ccccc2)[nH]c2cc(F)c(F)cc12 | 12.6 | 12.8 | 18.9 | 17.4 | 15.1 | 22.6 | 18.2 | > 50 | 
O=c1c(O)c(-c2ccccc2F)[nH]c2ccccc12 | 17.4 | 50 | 33.7 | 22.2 | 35.1 | 34.2 | 31.7 | > 50 | 
O=c1c(O)c(-c2ccc(F)cc2)[nH]c2ccccc12 | 2.4 | 9.4 | 40.4 | 8.6 | 34 | 36.5 | 18.1 | > 50 | Activity (CCRF-CEM [7]): 4.4%; Activity (CCRF-CEM [8]): 8.4%; Activity (CCRF-CEM [9]): 39.6%; Activity (CCRF-CEM [10]): 45.9%; Activity (CCRF-CEM [11]): 24.2%; Activity (CCRF-CEM [12]): 13.5%; Activity (CCRF-CEM [13]): 36.2%; Activity (CCRF-CEM [14]): 40.7%; Activity (CCRF-CEM [15]): 1.5%; Activity (CCRF-CEM [16]): 1.6%; Activity (CCRF-CEM [17]): 35.5%; Activity (CCRF-CEM [18]): 25.2%; Activity (CCRF-CEM [19]): 31.3%; Activity (CCRF-CEM [20]): 32.1%
O=c1c(O)c(-c2ccccc2)[nH]c2ccc(F)cc12 | 17.8 | 15.3 | 18.8 | 20.3 | > 50 | 17.4 | 18.8 | > 50 | 
O=c1c(O)c(-c2ccccc2)[nH]c2cc(F)ccc12 | 17.8 | 17.5 | 21.7 | 21.4 | > 50 | 43.9 | 19.5 | > 50 | 
O=c1c(O)c(-c2ccccc2)[nH]c2cc(F)cc(F)c12 | 4.6 | 18 | 21.6 | 19.8 | 22.5 | > 50 | 19.6 | > 50 | Activity (CCRF-CEM [7]): 0.8%; Activity (CCRF-CEM [8]): 1.4%; Activity (CCRF-CEM [9]): 33%; Activity (CCRF-CEM [10]): 26.6%; Activity (CCRF-CEM [11]): 48.4%; Activity (CCRF-CEM [12]): 51.6%; Activity (CCRF-CEM [13]): 18.6%; Activity (CCRF-CEM [14]): 21.8%; Activity (CCRF-CEM [15]): 2.1%; Activity (CCRF-CEM [16]): 0.9%; Activity (CCRF-CEM [17]): 65.7%; Activity (CCRF-CEM [18]): 79%; Activity (CCRF-CEM [19]): 57.2%; Activity (CCRF-CEM [20]): 53.7%
COC(=O)Nc1nc2cc(C(=O)c3cccs3)ccc2[nH]1 |  |  |  |  |  |  |  |  | Vmax (milli optical density/minute) (Sus scrofa): 7.6
